Reference: article PMC12264551 (Molecular Pharmacology, 2025)
Each block holds one molecule with its values, some of them ahead of it.

Tests used:
[1] = molecular target: T1, PAC1R (Homo sapiens, UniProt P41586); assay: Live cell cAMP accumulation (GloSensor), COS-7 cells transfected with PAC1R; type: cell-based; settings: ATP […] + PACAP 0.1 nM
T1 construct: host or cells: COS-7
T1 sequence (P41586 21-468): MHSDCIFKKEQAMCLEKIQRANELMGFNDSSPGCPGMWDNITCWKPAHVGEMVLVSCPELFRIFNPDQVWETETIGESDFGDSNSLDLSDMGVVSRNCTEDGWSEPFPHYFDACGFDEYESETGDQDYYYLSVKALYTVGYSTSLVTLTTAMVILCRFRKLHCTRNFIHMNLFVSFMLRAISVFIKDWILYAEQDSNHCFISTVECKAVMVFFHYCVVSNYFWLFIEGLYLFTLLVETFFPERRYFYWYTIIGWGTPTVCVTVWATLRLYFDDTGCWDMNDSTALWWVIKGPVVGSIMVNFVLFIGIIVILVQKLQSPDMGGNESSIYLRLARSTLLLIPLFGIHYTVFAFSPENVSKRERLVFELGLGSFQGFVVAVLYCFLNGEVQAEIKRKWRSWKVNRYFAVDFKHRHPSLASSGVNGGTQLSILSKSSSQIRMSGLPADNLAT

[2] = molecular target: T2, VPAC2R (Homo sapiens, UniProt P41587); assay: Live cell cAMP accumulation (GloSensor), COS-7 cells transfected with VPAC2R; type: cell-based; settings: ATP […] + VIP 0.1 nM
T2 construct: host or cells: COS-7
T2 sequence (P41587 24-438): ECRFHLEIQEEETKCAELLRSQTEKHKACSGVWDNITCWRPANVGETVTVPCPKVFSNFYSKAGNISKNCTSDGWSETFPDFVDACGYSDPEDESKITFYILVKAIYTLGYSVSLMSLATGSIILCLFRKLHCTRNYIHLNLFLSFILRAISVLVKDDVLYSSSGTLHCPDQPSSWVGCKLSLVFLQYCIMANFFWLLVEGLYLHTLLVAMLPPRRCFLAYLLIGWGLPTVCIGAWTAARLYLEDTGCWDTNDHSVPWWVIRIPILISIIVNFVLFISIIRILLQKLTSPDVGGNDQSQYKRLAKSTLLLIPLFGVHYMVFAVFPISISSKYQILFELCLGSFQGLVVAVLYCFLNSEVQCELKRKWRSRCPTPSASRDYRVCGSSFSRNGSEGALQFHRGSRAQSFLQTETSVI

[3] = molecular target: T3, calcitonin receptor (Homo sapiens, UniProt P30988); assay: Live cell cAMP accumulation (GloSensor), COS-7 cells transfected with calcitonin receptor; type: cell-based; design: host or cells: COS-7 (African monkey kidney) in A3
T3 sequence (P30988 25-474): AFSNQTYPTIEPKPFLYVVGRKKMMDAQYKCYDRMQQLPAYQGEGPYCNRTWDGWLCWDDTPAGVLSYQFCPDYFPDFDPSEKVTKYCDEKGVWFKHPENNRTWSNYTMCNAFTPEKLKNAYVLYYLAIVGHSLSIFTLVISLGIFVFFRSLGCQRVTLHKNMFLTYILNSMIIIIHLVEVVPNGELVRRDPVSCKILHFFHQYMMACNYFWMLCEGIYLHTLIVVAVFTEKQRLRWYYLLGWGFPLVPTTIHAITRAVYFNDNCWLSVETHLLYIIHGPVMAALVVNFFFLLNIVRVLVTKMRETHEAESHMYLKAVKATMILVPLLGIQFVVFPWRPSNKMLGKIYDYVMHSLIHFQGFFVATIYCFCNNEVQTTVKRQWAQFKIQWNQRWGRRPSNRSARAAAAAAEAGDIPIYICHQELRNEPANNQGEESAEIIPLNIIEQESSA

[4] = molecular target: T4, CRLR + RAMP1 (CGRP receptor) (Homo sapiens, UniProt O60894+Q16602); assay: Live cell cAMP accumulation (GloSensor), COS-7 cells transfected with CRLR + RAMP1; type: cell-based; settings: RAMP1, COS-7
T4 construct: RAMP plasmid gift of Dr Patrick Sexton; host or cells: COS-7
T4 sequence (Q16602 23-461): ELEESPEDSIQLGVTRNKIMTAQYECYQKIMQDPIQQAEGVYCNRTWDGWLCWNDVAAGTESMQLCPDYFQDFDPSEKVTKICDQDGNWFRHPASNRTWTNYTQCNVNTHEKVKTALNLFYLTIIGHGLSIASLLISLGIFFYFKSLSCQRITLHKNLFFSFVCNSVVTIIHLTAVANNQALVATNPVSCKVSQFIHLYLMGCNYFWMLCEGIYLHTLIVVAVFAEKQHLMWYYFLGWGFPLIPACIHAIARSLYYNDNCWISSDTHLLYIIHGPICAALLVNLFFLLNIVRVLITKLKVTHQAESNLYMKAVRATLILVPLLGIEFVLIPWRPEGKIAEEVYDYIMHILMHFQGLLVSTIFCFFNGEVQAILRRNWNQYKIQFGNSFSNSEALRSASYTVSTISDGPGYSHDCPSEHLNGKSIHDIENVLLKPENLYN
T4 sequence (O60894 27-148): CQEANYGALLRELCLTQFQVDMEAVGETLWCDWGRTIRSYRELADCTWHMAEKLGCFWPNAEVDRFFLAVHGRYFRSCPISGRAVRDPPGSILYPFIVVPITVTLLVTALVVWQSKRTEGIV

[5] = molecular target: T5, VPAC1R (Homo sapiens, UniProt P32241); assay: Live cell cAMP accumulation (GloSensor), SaOS-2 cells with endogenous VPAC1R; type: cell-based; design: SaOS-2 cells endogenously express VPAC1R; endogenous in cells; host or cells: SaOS-2; settings: ATP […] + VIP 1 nM
T5 sequence (P32241 31-457): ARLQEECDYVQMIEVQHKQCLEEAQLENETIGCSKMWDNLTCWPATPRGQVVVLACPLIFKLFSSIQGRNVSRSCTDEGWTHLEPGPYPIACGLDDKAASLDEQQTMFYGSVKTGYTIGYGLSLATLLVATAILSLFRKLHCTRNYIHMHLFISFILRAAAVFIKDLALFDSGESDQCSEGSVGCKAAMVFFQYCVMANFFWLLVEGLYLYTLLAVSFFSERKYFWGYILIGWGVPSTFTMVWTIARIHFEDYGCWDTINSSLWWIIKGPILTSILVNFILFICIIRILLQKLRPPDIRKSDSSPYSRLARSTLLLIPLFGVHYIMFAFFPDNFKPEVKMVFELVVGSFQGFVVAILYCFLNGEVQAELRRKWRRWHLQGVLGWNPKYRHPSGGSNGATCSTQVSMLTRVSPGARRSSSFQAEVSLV

[6] = molecular target: T5, VPAC1R; assay: Live cell cAMP accumulation (GloSensor), COS-7 cells transfected with VPAC1R; type: cell-based; design: host or cells: COS-7; settings: ATP […] + VIP 0.1 nM
[7] = molecular target: T3, calcitonin receptor; assay: Live cell cAMP accumulation (GloSensor), UMR-106 cells transfected with calcitonin receptor; type: cell-based; design: host or cells: UMR-106 (rat osteoblast-like) in A1; COS-7 (African monkey kidney) in A3
[8] = test system: PTH1R; settings: ref Kim et al, 2018, cited from earlier work
From the text: Extracellular nucleotides are known for their ability to act as purinoceptor agonists ([Burnstock, 2007]).

[9] = molecular target: T6, CRLR + RAMP2 (adrenomedullin 1 receptor) (Homo sapiens, UniProt O60895+Q16602); assay: Live cell cAMP accumulation (GloSensor), COS-7 cells transfected with CRLR + RAMP2; type: cell-based; settings: ATP […] + CGRP 10 nM, RAMP2, COS-7
T6 construct: RAMP plasmid gift of Dr Patrick Sexton; host or cells: COS-7
T6 sequence (Q16602 23-461): as the sequence (Q16602 23-461) above
T6 sequence (O60895 43-175): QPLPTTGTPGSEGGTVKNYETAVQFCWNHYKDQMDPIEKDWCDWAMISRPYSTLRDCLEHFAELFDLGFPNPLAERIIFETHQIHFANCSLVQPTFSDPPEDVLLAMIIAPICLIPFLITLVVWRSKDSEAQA

[10] = molecular target: T3, calcitonin receptor; assay: Live cell cAMP accumulation (GloSensor), MCF-7 cells with endogenous calcitonin receptor; type: cell-based; design: COS-7 (African monkey kidney) in A3; settings: calcitonin + vehicle, Fig. 1D, fraction of greatest slope, ± SEM, n = 3
[11] = molecular target: T7, vasoactive intestinal polypeptide receptor 1 (UniProt P32241)
T7 sequence: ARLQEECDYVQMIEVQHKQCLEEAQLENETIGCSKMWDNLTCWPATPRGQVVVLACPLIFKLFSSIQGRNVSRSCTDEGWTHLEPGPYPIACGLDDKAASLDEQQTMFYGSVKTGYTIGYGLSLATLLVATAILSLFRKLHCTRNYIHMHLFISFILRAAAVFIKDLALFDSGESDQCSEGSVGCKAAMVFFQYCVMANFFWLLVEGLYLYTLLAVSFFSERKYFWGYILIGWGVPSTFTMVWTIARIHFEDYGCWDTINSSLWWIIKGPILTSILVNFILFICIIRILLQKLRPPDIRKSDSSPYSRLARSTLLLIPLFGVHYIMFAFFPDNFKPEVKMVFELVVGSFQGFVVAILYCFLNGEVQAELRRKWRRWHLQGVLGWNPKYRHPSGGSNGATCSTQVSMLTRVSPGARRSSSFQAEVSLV

[12] = molecular target: T8, vasoactive intestinal polypeptide receptor 2 (UniProt P41587)
T8 sequence: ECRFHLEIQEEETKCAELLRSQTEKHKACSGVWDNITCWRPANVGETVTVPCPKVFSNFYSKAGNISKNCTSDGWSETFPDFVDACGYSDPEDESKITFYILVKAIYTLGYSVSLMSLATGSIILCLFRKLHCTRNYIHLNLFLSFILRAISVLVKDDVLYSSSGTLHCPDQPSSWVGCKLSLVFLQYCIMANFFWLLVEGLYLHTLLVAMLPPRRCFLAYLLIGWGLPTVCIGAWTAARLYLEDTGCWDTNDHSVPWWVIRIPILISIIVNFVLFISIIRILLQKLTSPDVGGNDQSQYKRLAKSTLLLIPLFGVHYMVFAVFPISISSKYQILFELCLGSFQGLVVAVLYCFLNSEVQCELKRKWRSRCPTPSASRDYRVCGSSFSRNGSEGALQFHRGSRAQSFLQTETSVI

[13] = molecular target: T9, VPAC1R, endogenous in SaOS-2 cells (human (endogenous in SaOS-2)) (UniProt P32241)
T9 sequence: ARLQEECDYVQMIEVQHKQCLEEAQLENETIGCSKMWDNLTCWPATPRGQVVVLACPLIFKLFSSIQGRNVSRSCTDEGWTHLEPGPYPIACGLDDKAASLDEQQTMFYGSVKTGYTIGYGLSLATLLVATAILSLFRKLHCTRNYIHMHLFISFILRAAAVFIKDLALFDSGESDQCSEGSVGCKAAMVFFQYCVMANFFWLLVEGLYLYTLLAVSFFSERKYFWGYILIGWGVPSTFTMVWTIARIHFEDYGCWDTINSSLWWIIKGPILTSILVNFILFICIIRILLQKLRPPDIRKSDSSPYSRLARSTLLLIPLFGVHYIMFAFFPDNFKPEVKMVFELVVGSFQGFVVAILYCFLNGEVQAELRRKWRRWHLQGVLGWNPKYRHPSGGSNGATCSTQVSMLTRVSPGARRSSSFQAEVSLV

Molecule: Nc1ncnc2c1ncn2[C@@H]1O[C@H](COP(=O)(O)OP(=O)(O)OP(=O)(O)O)[C@@H](O)[C@H]1O [ATP, Adenosine 5'-triphosphate]
effect on PACAP-induced cAMP accumulation [1]: markedly enhanced
effect on VIP-induced cAMP accumulation [2]: markedly enhanced
effect on rate of calcitonin-induced cAMP accumulation ([3]; ATP […] + calcitonin 1 nM): markedly enhanced
Hill coefficient / slope factor ([4]; ATP + CGRP 10 nM, 4-parameter fit, n = 3): 3.2
effect on CGRP-induced cAMP accumulation ([4]; ATP […] + CGRP 10 nM): markedly enhanced
EC50 ([4]; EC50 of ATP for potentiation of CGRP signaling, ATP + CGRP 10 nM, 4-parameter fit, n = 3): 500 µM
effect on VIP-induced cAMP accumulation [5]: enhanced VIP-induced cAMP accumulation
effect on VIP-induced cAMP accumulation [6]: markedly enhanced
effect on calcitonin-induced cAMP accumulation ([7]; ATP […] + calcitonin 1 nM): markedly enhanced
effect on PTH1R signaling in absence of added agonist ([8]; extracellular ATP alone): no effect on PTH1R signaling in the absence of added agonist
effect on agonist-induced cAMP elevation and β-arrestin recruitment ([8]; extracellular ATP with PTH1R agonist): strongly enhance
effect on CGRP-induced cAMP accumulation [9]: markedly enhanced

Molecule: CC(C)C[C@H](NC(=O)[C@H](CCCCN)NC(=O)CNC(=O)[C@H](CC(C)C)NC(=O)[C@@H](NC(=O)[C@@H]1CSSC[C@H](N)C(=O)N[C@@H](CO)C(=O)N[C@@H](CC(N)=O)C(=O)N[C@@H](CC(C)C)C(=O)N[C@@H](CO)C(=O)N[C@@H]([C@@H](C)O)C(=O)N1)C(C)C)C(=O)N[C@@H](CO)C(=O)N[C@@H](CCC(N)=O)C(=O)N[C@@H](CCC(=O)O)C(=O)N[C@@H](CC(C)C)C(=O)N[C@@H](Cc1c[nH]cn1)C(=O)N[C@@H](CCCCN)C(=O)N[C@@H](CC(C)C)C(=O)N[C@@H](CCC(N)=O)C(=O)N[C@H](C(=O)N[C@@H](Cc1ccc(O)cc1)C(=O)N1CCC[C@H]1C(=O)N[C@@H](CCCNC(=N)N)C(=O)N[C@H](C(=O)N[C@@H](CC(N)=O)C(=O)N[C@H](C(=O)NCC(=O)N[C@@H](CO)C(=O)NCC(=O)N[C@H](C(=O)N1CCC[C@H]1C(N)=O)[C@@H](C)O)[C@@H](C)O)[C@@H](C)O)[C@@H](C)O [calcitonin, Salmon calcitonin]
Normalized Maximum ([3]; calcitonin + vehicle, Fig. 1F, fraction of greatest slope, ± SEM, n = 3): 0.69 ± 0.04
Normalized Maximum ([7]; calcitonin + vehicle, Fig. 1B, fraction of greatest slope, best-fit ± SEM, n = 3): 0.69 ± 0.04
Normalized Maximum [10]: 0.68 ± 0.05

−LogEC50 of VIP, maximum rate of cAMP accumulation (GloSensor), COS-7 cells transfected with VPAC1R, vehicle (Fig. 6E) (−LogEC50 (EC50 in M)) [11]: 9.56
−LogEC50 of VIP, maximum rate of cAMP accumulation (GloSensor), COS-7 cells transfected with VPAC1R, with ATP 1.5 mM (Fig. 6E) (−LogEC50 (EC50 in M)) [11]: 10.3
−LogEC50 of VIP, maximum rate of cAMP accumulation (GloSensor), COS-7 cells transfected with VPAC2R, vehicle (Fig. 6H) (−LogEC50 (EC50 in M)) [12]: 8.9
−LogEC50 of VIP, maximum rate of cAMP accumulation (GloSensor), COS-7 cells transfected with VPAC2R, with ATP 1.5 mM (Fig. 6H) (−LogEC50 (EC50 in M)) [12]: 9.42
−LogEC50 of VIP, maximum rate of cAMP accumulation (GloSensor), SaOS-2 cells (endogenous VPAC1R), vehicle (Fig. 6K) (−LogEC50 (EC50 in M)) [13]: 8.35
−LogEC50 of VIP, maximum rate of cAMP accumulation (GloSensor), SaOS-2 cells (endogenous VPAC1R), with ATP 1.5 mM (Fig. 6K) (−LogEC50 (EC50 in M)) [13]: 9.24
Molecule: HSDAVFTDNYTRLRKQMAVKKYLNSILN [vasoactive intestinal peptide]
